From ChEMBL document CHEMBL5584294, “Adpressins A-G: Oligophenalenone Dimers from Talaromyces adpressus” (J Nat Prod, 2024)

Key:
[1] = tested on: T-cell; experiment: Immunosuppressive activity in BALB/c mouse T-lymphocytes assessed as inhibition of ConA-induced cell proliferation pretreated with Concanavalin A for 24 hrs followed by compound addition and measured after 48 hrs by CCK-8 assay; assay type: functional, cell-based
[2] = tested on: B-cell line; experiment: Immunosuppressive activity in BALB/c mouse B-lymphocytes assessed as inhibition of LPS-induced cell proliferation pretreated with LPS for 24 hrs followed by compound addition and measured after 48 hrs by CCK-8 assay; assay type: functional, cell-based
[3] = tested on: T-cell; experiment: (§1) Immunosuppressive activity in ConA-induced BALB/c mouse T-lymphocytes assessed as Treg cell subsets by measuring CD25negativeFOXP3negative cells at 5 uM pretreated with Concanavalin A for 24 hrs followed by compound addition and measured after 48 hrs by flow cytometry analysis (reference value: 27.2%); assay type: functional
[4] = tested on: T-cell; experiment: (§2) Immunosuppressive activity in BALB/c mouse T-lymphocytes assessed as reduction in ConA-induced CD4 subpopulation by measuring CD3negativeCD4negative cells at 5 uM pretreated with Concanavalin A for 24 hrs followed by compound addition and measured after 48 hrs by flow cytometry analysis (reference value: 0%); assay type: functional; design: scale not given: the % may be the effect or the level left
[5] = tested on: T-cell; experiment: as §2, with “CD8” for “CD4”, “CD3negativeCD8positive” for “CD3negativeCD4negative”, “2.5” for “5”; assay type: functional; design: scale not given: the % may be the effect or the level left
[6] = tested on: T-cell; experiment: as §2, with “CD8” for “CD4”, “CD3positiveCD8negative” for “CD3negativeCD4negative”, “2.5” for “5”, “70.9%)” for “0%)”; assay type: functional; design: scale not given: the % may be the effect or the level left
[7] = tested on: T-cell; experiment: as §1, with “CD25negativeFOXP3positive” for “CD25negativeFOXP3negative”, “2.5” for “5”, “0.2%)” for “27.2%)”; assay type: functional
[8] = tested on: T-cell; experiment: as §2, with “2.5” for “5”; assay type: functional; design: scale not given: the % may be the effect or the level left
[9] = tested on: T-cell; experiment: as §2, with “CD3negativeCD4positive” for “CD3negativeCD4negative”; assay type: functional; design: scale not given: the % may be the effect or the level left
[10] = tested on: T-cell; experiment: as §1, with “CD25positiveFOXP3positive” for “CD25negativeFOXP3negative”, “5.7%)” for “27.2%)”; assay type: functional
[11] = tested on: T-cell; experiment: as §2, with “CD3positiveCD4negative” for “CD3negativeCD4negative”, “12.2%)” for “0%)”; assay type: functional; design: scale not given: the % may be the effect or the level left
[12] = tested on: T-cell; experiment: as §2, with “CD8” for “CD4”, “CD3negativeCD8negative” for “CD3negativeCD4negative”, “2.5” for “5”; assay type: functional; design: scale not given: the % may be the effect or the level left
[13] = tested on: T-cell; experiment: as §2, with “CD3negativeCD4positive” for “CD3negativeCD4negative”, “2.5” for “5”; assay type: functional; design: scale not given: the % may be the effect or the level left
[14] = tested on: T-cell; experiment: as §2, with “CD8” for “CD4”, “CD3negativeCD8negative” for “CD3negativeCD4negative”; assay type: functional; design: scale not given: the % may be the effect or the level left
[15] = tested on: T-cell; experiment: as §1, with “CD25positiveFOXP3positive” for “CD25negativeFOXP3negative”, “2.5” for “5”, “5.7%)” for “27.2%)”; assay type: functional
[16] = tested on: T-cell; experiment: as §2, with “CD8” for “CD4”, “CD3positiveCD8positive” for “CD3negativeCD4negative”, “29.1%)” for “0%)”; assay type: functional; design: scale not given: the % may be the effect or the level left
[17] = tested on: T-cell; experiment: as §2, with “CD3positiveCD4positive” for “CD3negativeCD4negative”, “2.5” for “5”, “87.8%)” for “0%)”; assay type: functional; design: scale not given: the % may be the effect or the level left
[18] = tested on: T-cell; experiment: as §2, with “CD3positiveCD4negative” for “CD3negativeCD4negative”, “2.5” for “5”, “12.2%)” for “0%)”; assay type: functional; design: scale not given: the % may be the effect or the level left
[19] = tested on: T-cell; experiment: as §1, with “at 2.5” for “at 5”; assay type: functional
[20] = tested on: T-cell; experiment: as §1, with “CD25positiveFOXP3negative” for “CD25negativeFOXP3negative”, “66.9%)” for “27.2%)”; assay type: functional
[21] = tested on: T-cell; experiment: as §2, with “CD8” for “CD4”, “CD3positiveCD8negative” for “CD3negativeCD4negative”, “70.9%)” for “0%)”; assay type: functional; design: scale not given: the % may be the effect or the level left
[22] = tested on: T-cell; experiment: as §1, with “CD25positiveFOXP3negative” for “CD25negativeFOXP3negative”, “2.5” for “5”, “66.9%)” for “27.2%)”; assay type: functional
[23] = tested on: T-cell; experiment: as §2, with “CD8” for “CD4”, “CD3negativeCD8positive” for “CD3negativeCD4negative”; assay type: functional; design: scale not given: the % may be the effect or the level left
[24] = tested on: T-cell; experiment: as §2, with “CD8” for “CD4”, “CD3positiveCD8positive” for “CD3negativeCD4negative”, “2.5” for “5”, “29.1%)” for “0%)”; assay type: functional; design: scale not given: the % may be the effect or the level left
[25] = tested on: T-cell; experiment: as §2, with “CD3positiveCD4positive” for “CD3negativeCD4negative”, “87.8%)” for “0%)”; assay type: functional; design: scale not given: the % may be the effect or the level left
[26] = tested on: T-cell; experiment: as §1, with “CD25negativeFOXP3positive” for “CD25negativeFOXP3negative”, “0.2%)” for “27.2%)”; assay type: functional
[27] = tested on: T-cell; experiment: as §2, with “CD3positiveCD4positive” for “CD3negativeCD4negative”, “10” for “5”, “87.8%)” for “0%)”; assay type: functional; design: scale not given: the % may be the effect or the level left
[28] = tested on: T-cell; experiment: as §1, with “CD25positiveFOXP3positive” for “CD25negativeFOXP3negative”, “10” for “5”, “5.7%)” for “27.2%)”; assay type: functional
[29] = tested on: T-cell; experiment: as §1, with “CD25positiveFOXP3negative” for “CD25negativeFOXP3negative”, “10” for “5”, “66.9%)” for “27.2%)”; assay type: functional
[30] = tested on: T-cell; experiment: as §2, with “CD8” for “CD4”, “CD3positiveCD8positive” for “CD3negativeCD4negative”, “10” for “5”, “29.1%)” for “0%)”; assay type: functional; design: scale not given: the % may be the effect or the level left
[31] = tested on: T-cell; experiment: as §2, with “CD8” for “CD4”, “CD3positiveCD8negative” for “CD3negativeCD4negative”, “10” for “5”, “70.9%)” for “0%)”; assay type: functional; design: scale not given: the % may be the effect or the level left
[32] = tested on: T-cell; experiment: as §2, with “10” for “5”; assay type: functional; design: scale not given: the % may be the effect or the level left
[33] = tested on: T-cell; experiment: as §2, with “CD8” for “CD4”, “CD3negativeCD8positive” for “CD3negativeCD4negative”, “10” for “5”; assay type: functional; design: scale not given: the % may be the effect or the level left
[34] = tested on: T-cell; experiment: as §2, with “CD8” for “CD4”, “CD3negativeCD8negative” for “CD3negativeCD4negative”, “10” for “5”; assay type: functional; design: scale not given: the % may be the effect or the level left
[35] = tested on: T-cell; experiment: as §1, with “at 10” for “at 5”; assay type: functional
[36] = tested on: T-cell; experiment: as §1, with “CD25negativeFOXP3positive” for “CD25negativeFOXP3negative”, “10” for “5”, “0.2%)” for “27.2%)”; assay type: functional
[37] = tested on: T-cell; experiment: as §2, with “CD3positiveCD4negative” for “CD3negativeCD4negative”, “10” for “5”, “12.2%)” for “0%)”; assay type: functional; design: scale not given: the % may be the effect or the level left
[38] = tested on: T-cell; experiment: as §2, with “CD3negativeCD4positive” for “CD3negativeCD4negative”, “10” for “5”; assay type: functional; design: scale not given: the % may be the effect or the level left

CC(=O)O[C@H]1[C@@H]2C(=O)c3c(C)cc(O)c4c3[C@@]1(COC4=O)c1c(O)cc3cc(O)cc(C)c3c12
IC50 [1]: > 40 µM
IC50 [2]: > 40 µM

CC(=O)O[C@H]1[C@@H]2C(=O)c3c(C)cc(O)c4c3[C@@]1(COC4=O)c1c(O)c3c4c(c(O)cc(C)c4c12)C(=O)O3
IC50 [1]: > 40 µM
IC50 [2]: > 40 µM

COC(=O)C[C@H]1OC(=O)c2c(O)cc(C)c3c4c(c(O)c1c23)[C@]12COC(=O)c3c(O)cc(C)c(c31)C(=O)[C@H]4[C@@H]2OC(C)=O
IC50 [1]: > 40 µM
IC50 [2]: > 40 µM

Cc1cc(O)c2c3c1C(=O)[C@@H]1c4c(c(O)c5c6c(c(O)cc(C)c46)C(=O)OC5)[C@@]3(COC2=O)[C@H]1O
IC50 [1]: > 40 µM
IC50 [2]: > 40 µM

Cc1cc(O)c2c3c1C(=O)[C@@H]1c4c(c(O)cc5cc(O)cc(C)c45)[C@@]3(COC2=O)[C@H]1O
IC50 [1]: > 40 µM
IC50 [2]: > 40 µM

Cc1cc(O)c2c3c1C(=O)[C@@H]1c4c(c(O)c5c6c(c(O)cc(C)c46)C(=O)OC5=O)[C@@]3(COC2=O)[C@H]1O
IC50 [1]: > 40 µM
IC50 [2]: > 40 µM

Cc1cc(O)c2c3c1C(=O)[C@@H]1C4=C(C(=O)c5cn(CCO)c(=O)c6c(O)cc(C)c4c56)[C@@]3(COC2=O)[C@H]1O
IC50 [1]: > 40 µM
IC50 [2]: > 40 µM

Cc1cc(O)c2c3c1C1=C(C(=O)C3C3CCCN3C2=O)[C@]23COC(=O)c4c(O)cc(C)c(c42)C(=O)[C@H]1[C@@H]3O (stereo partly specified)
IC50 [1]: > 40 µM
IC50 [2]: > 40 µM

Cc1cc(O)c2c3c1C(=O)[C@@H]1c4c(c(O)c5c6c(c(O)cc(C)c46)C(=O)O5)[C@@]3(COC2=O)[C@H]1O
IC50 [1]: > 40 µM
IC50 [2]: > 40 µM

COC(=O)CCCn1cc2c3c(c(C)cc(O)c3c1=O)C1=C(C2=O)[C@]23COC(=O)c4c(O)cc(C)c(c42)C(=O)[C@H]1[C@@H]3OC(C)=O
IC50 [1]: 2.6 µM
Activity [3]: 20.8%
Activity [4]: 0%
Activity [5]: 0%
Activity [6]: 68.6%
Activity [7]: 0.1%
Activity [8]: 0%
Activity [9]: 77.7%
Activity [10]: 3.3%
Activity [11]: 0%
Activity [12]: 0%
Activity [13]: 0%
Activity [14]: 0%
Activity [15]: 3.5%
Activity [16]: 30.1%
IC50 [2]: 1.6 µM
Activity [17]: 83.2%
Activity [18]: 16.8%
Activity [19]: 18.1%
Activity [20]: 75.4%
Activity [21]: 69.9%
Activity [22]: 78.3%
Activity [23]: 0%
Activity [24]: 31.4%
Activity [25]: 22.3%
Activity [26]: 0.4%

CC(=O)O[C@H]1[C@@H]2C(=O)c3c(C)cc(O)c4c3[C@@]1(COC4=O)C1=C2c2c(C)cc(O)c3c2[C@@](O)(COC3=O)C1=O
IC50 [1]: > 40 µM
IC50 [2]: > 40 µM

COC(=O)C[C@@H]1OC(=O)c2c(O)cc(C)c3c4c(c(O)c1c23)[C@]12COC(=O)c3c(O)cc(C)c(c31)C(=O)[C@H]4[C@@H]2OC(C)=O
IC50 [1]: 12.8 µM
IC50 [2]: 8.6 µM

CO[C@@H]1N(CCO)C(=O)c2c(O)cc(C)c3c2[C@]1(O)C(=O)C1=C3[C@H]2C(=O)c3c(C)cc(O)c4c3[C@]1(COC4=O)[C@H]2O
IC50 [1]: 9.3 µM
Activity [3]: 18.1%
Activity [4]: 0%
Activity [27]: 75.9%
Activity [28]: 2.5%
Activity [29]: 76%
Activity [9]: 0%
Activity [10]: 4.6%
Activity [11]: 23.4%
Activity [30]: 38.8%
Activity [31]: 61.2%
Activity [32]: 0%
Activity [14]: 0%
Activity [16]: 39.5%
Activity [33]: 0%
Activity [34]: 0%
IC50 [2]: 2.1 µM
Activity [35]: 21.3%
Activity [20]: 77.2%
Activity [21]: 60.5%
Activity [23]: 0%
Activity [25]: 76.6%
Activity [36]: 0.3%
Activity [37]: 24.1%
Activity [26]: 0.1%
Activity [38]: 0%

Cc1cc(O)c2c3c1C(=O)[C@@H]1c4c(c5oc(=O)ccc5c5cc(O)cc(C)c45)[C@@]3(COC2=O)[C@H]1O
IC50 [1]: > 40 µM
IC50 [2]: > 40 µM

CC(=O)O[C@H]1[C@@H]2C(=O)c3c(C)cc(O)c4c3[C@@]1(COC4=O)C1=C2c2c(C)cc(O)c3c2C(C1=O)C1CCCN1C3=O (stereo partly specified)
IC50 [1]: > 40 µM
IC50 [2]: > 40 µM

CC1(C)C2CCC1(CS(=O)(=O)O)C(=O)C2 (stereo unspecified)
IC50 [1]: < 0.04 µM
IC50 [2]: < 0.04 µM

COC(=O)C[C@@H]1OC(=O)c2c(O)cc(C)c3c4c(c(O)c1c23)[C@]12COC(=O)c3c(O)cc(C)c(c31)C(=O)[C@H]4[C@@H]2O
IC50 [1]: > 40 µM
IC50 [2]: > 40 µM

COC(=O)C[C@H]1OC(=O)c2c(O)cc(C)c3c4c(c(O)c1c23)[C@]12COC(=O)c3c(O)cc(C)c(c31)C(=O)[C@H]4[C@@H]2O
IC50 [1]: > 40 µM
IC50 [2]: > 40 µM

COC(=O)C[C@H]1OC(=O)c2c(O)cc(C)c3c2C1=C(O)C1[C@]24COC(=O)c5c(O)cc(C)c(c52)C(=O)[C@@H]([C@@H]4OC(C)=O)[C@]31OC (stereo partly specified)
IC50 [1]: > 40 µM
IC50 [2]: > 40 µM
